Measured values from paper PMC7377239, “Cardiovascular Effects of Polychlorinated Biphenyls and Their Major Metabolites” (Environmental Health Perspectives, 2020).
Read-outs that look alike come from different tables or passages of the source.

Tested on: iCell cardiomyocytes (human iPSC-derived cardiomyocytes)
Experiment: Intracellular Ca2+ flux / beating parameters in iCell cardiomyocytes (FLIPR tetra), 90 min or 24 h
Type: cell-based
Conditions: 0.00 µM = 100.00; for activity at 0.01 µM / activity at 0.1 µM / activity at 1 µM / activity at 10 µM / activity at 100 µM: Homo sapiens, Cardiomyocyte
Procedure, shortened: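 Gelatin-plated iCell cardiomyocytes (5,000/well) were dye-loaded for 2 h at 37 °C, then exposed for 90 min or 24 h to PCBs/metabolites (5× plates at 0.05–500 µM; 0.5% DMSO final) in triplicate. Ca2+ flux was read for 100 s at 8 Hz and 37 °C. Peak height, frequency, spacing CV and decay/rise ratio were vehicle-normalized and fitted with a four-parameter logistic model, with POD set at 1 SD of vehicle.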

Clc1ccc(Cl)c(-c2c(Cl)ccc(Cl)c2Cl)c1Cl [(+)-PCB 136, 2,2′,3,3′,6,6′-hexachlorobiphenyl]
cm.amp.avg.24hrs (0.01 µM, 24hrs): 54.01 | cm.amp.cv.24hrs (0.01 µM, 24hrs): 158.80 | cm.amp.avg.24hrs (0.10 µM, 24hrs): 107.99 | cm.amp.cv.24hrs (0.10 µM, 24hrs): 72.89 | cm.bpm.24hrs (0.10 µM, 24hrs): 96.42 | cm.decay.rise.24hrs (0.10 µM, 24hrs): 106.79 | cm.spacing.cv.24hrs (0.10 µM, 24hrs): 105.08 | cm.amp.cv.24hrs (1.00 µM, 24hrs): 92.90 | cm.bpm.24hrs (1.00 µM, 24hrs): 94.51 | cm.decay.rise.24hrs (1.00 µM, 24hrs): 114.76 | cm.spacing.cv.24hrs (1.00 µM, 24hrs): 110.09 | cm.bpm.90min (10.00 µM, 90min): 82.76 | cm.decay.rise.90min (10.00 µM, 90min): 115.77 | cm.amp.avg.24hrs (10.00 µM, 24hrs): 0.00 | cm.amp.cv.24hrs (10.00 µM, 24hrs): 0.00 | cm.bpm.24hrs (10.00 µM, 24hrs): 0.00 | cm.decay.rise.24hrs (10.00 µM, 24hrs): 0.00 | cm.spacing.cv.24hrs (10.00 µM, 24hrs): 0.00 | activity at 0.01 µM (1.5 h, 0.01 µM, 90min, read-out: cm.amp.avg.90min): 106% | activity at 0.01 µM (1.5 h, 0.01 µM, 90min, read-out: cm.amp.cv.90min): 96.9% | activity at 0.01 µM (1.5 h, 0.01 µM, 90min, read-out: cm.bpm.90min): 97.8% | activity at 0.01 µM (1.5 h, 0.01 µM, 90min, read-out: cm.decay.rise.90min): 99% | activity at 0.01 µM (1.5 h, 0.01 µM, 90min, read-out: cm.spacing.cv.90min): 101% | activity at 0.1 µM (1.5 h, 0.10 µM, 90min, read-out: cm.amp.avg.90min): 107% | activity at 0.1 µM (1.5 h, 0.10 µM, 90min, read-out: cm.amp.cv.90min): 112% | activity at 0.1 µM (1.5 h, 0.10 µM, 90min, read-out: cm.bpm.90min): 96.5% | activity at 0.1 µM (1.5 h, 0.10 µM, 90min, read-out: cm.decay.rise.90min): 99.7% | activity at 0.1 µM (1.5 h, 0.10 µM, 90min, read-out: cm.spacing.cv.90min): 115% | activity at 1 µM (1.5 h, 1.00 µM, 90min, read-out: cm.amp.avg.90min): 107% | activity at 1 µM (1.5 h, 1.00 µM, 90min, read-out: cm.amp.cv.90min): 120% | activity at 1 µM (1.5 h, 1.00 µM, 90min, read-out: cm.bpm.90min): 87.8% | activity at 1 µM (1.5 h, 1.00 µM, 90min, read-out: cm.decay.rise.90min): 107% | activity at 1 µM (1.5 h, 1.00 µM, 90min, read-out: cm.spacing.cv.90min): 107% | activity at 10 µM (1.5 h, 10.00 µM, 90min, read-out: cm.amp.avg.90min): 94.4% | activity at 10 µM (1.5 h, 10.00 µM, 90min, read-out: cm.amp.cv.90min): 114% | activity at 10 µM (1.5 h, 10.00 µM, 90min, read-out: cm.spacing.cv.90min): 118% | activity at 100 µM (1.5 h, 90min, read-out: cm.amp.avg.90min): 0% | activity at 100 µM (1.5 h, 90min, read-out: cm.amp.cv.90min): 0% | activity at 100 µM (1.5 h, 90min, read-out: cm.bpm.90min): 0% | activity at 100 µM (1.5 h, 90min, read-out: cm.decay.rise.90min): 0% | activity at 100 µM (1.5 h, 90min, read-out: cm.spacing.cv.90min): 0% | activity at 0.01 µM (24 h, 0.01 µM, 24hrs, read-out: cm.bpm.24hrs): 105% | activity at 0.01 µM (24 h, 0.01 µM, 24hrs, read-out: cm.decay.rise.24hrs): 93.3% | activity at 0.01 µM (24 h, 0.01 µM, 24hrs, read-out: cm.spacing.cv.24hrs): 104% | activity at 1 µM (24 h, 1.00 µM, 24hrs, read-out: cm.amp.avg.24hrs): 83.3% | activity at 100 µM (24 h, 24hrs, read-out: cm.amp.avg.24hrs): 0% | activity at 100 µM (24 h, 24hrs, read-out: cm.amp.cv.24hrs): 0% | activity at 100 µM (24 h, 24hrs, read-out: cm.bpm.24hrs): 0% | activity at 100 µM (24 h, 24hrs, read-out: cm.decay.rise.24hrs): 0% | activity at 100 µM (24 h, 24hrs, read-out: cm.spacing.cv.24hrs): 0%
